This is an account of results in patent publication US20210269451A1, “PYRIDINYL HETEROCYCLYL COMPOUNDS FOR THE TREATMENT OF AUTOIMMUNE DISEASE” (Hoffmann-La Roche Inc., priority 2018, published 2021).

This series addresses T1, hERG channel (Homo sapiens, UniProt Q12809).
T1 construct: expressed in transfected cells; host or cells: CHO (Chinese hamster ovary), CHOhERG
The series is described as follows: hERG channel inhibition assay (patch-clamp, CHOhERG cells).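 For hERG IC20/TLR7 IC50: ratio above 30 indicates an adequate safety window.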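 For hERG IC20/TLR8 IC50: ratio above 30 indicates an adequate safety window.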 The series is classed as cell-based. The conditions noted are these: for pIC50 / IC20: CHOhERG cells, whole-cell patch-clamp; for IC20: human, CHO cells stably expressing hERG (CHOhERG); for hERG IC20/TLR7 IC50 / hERG IC20/TLR8 IC50 / hERG IC20/TLR9 IC50: safety ratio. The method, then: hERG channel inhibition assay:
The hERG K^+ channels were cloned in humans and stably expressed in a CHO (Chinese hamster ovary) cell line. CHOhERG cells were used for patch-clamp (voltage-clamp, whole-cell) experiments. Cells were stimulated by a voltage pattern to activate hERG channels and conduct IKhERG currents (rapid delayed outward rectifier potassium current of the hERG channel). After the cells were stabilized for a few minutes, the amplitude and kinetics of IKhERG were recorded at a stimulation frequency of 0.1 Hz (6 bpm). Thereafter, the test compound was added to the preparation at increasing concentrations. For each concentration, an attempt was made to reach a steady-state effect, usually, this was achieved within 3-10 min at which time the next highest concentration was applied. The amplitude and kinetics of IKhERG are recorded in each concentration of the drug which were compared to the control values (taken as 100%). (references: Redfern W S, Carlsson L, Davis A S, Lynch W G, MacKenzie I, Palethorpe S, Siegl P K, Strang I, Sullivan A T, Wallis R, Camm A J, Hammond T G. 2003; Relationships between preclinical cardiac electrophysiology, clinical QT interval prolongation and torsade de pointes for a broad range of drugs: evidence for a provisional safety margin in drug development. Cardiovasc. Res. 58:32-45, Sanguinetti M C, Tristani-Firouzi M. 2006; hERG potassium channels and cardiac arrhythmia. Nature 440:463-469, Webster R, Leishman D, Walker D. 2002; Towards a drug concentration effect relationship for QT prolongation and torsades de pointes. Curr. Opin. Drug Discov. Devel. 5:116-26).
(In general: hERG is a cardiac potassium channel; its block is linked to QT prolongation.)

pIC50: −log10 of the molar value.

T1 sequence (Q12809 whole entry): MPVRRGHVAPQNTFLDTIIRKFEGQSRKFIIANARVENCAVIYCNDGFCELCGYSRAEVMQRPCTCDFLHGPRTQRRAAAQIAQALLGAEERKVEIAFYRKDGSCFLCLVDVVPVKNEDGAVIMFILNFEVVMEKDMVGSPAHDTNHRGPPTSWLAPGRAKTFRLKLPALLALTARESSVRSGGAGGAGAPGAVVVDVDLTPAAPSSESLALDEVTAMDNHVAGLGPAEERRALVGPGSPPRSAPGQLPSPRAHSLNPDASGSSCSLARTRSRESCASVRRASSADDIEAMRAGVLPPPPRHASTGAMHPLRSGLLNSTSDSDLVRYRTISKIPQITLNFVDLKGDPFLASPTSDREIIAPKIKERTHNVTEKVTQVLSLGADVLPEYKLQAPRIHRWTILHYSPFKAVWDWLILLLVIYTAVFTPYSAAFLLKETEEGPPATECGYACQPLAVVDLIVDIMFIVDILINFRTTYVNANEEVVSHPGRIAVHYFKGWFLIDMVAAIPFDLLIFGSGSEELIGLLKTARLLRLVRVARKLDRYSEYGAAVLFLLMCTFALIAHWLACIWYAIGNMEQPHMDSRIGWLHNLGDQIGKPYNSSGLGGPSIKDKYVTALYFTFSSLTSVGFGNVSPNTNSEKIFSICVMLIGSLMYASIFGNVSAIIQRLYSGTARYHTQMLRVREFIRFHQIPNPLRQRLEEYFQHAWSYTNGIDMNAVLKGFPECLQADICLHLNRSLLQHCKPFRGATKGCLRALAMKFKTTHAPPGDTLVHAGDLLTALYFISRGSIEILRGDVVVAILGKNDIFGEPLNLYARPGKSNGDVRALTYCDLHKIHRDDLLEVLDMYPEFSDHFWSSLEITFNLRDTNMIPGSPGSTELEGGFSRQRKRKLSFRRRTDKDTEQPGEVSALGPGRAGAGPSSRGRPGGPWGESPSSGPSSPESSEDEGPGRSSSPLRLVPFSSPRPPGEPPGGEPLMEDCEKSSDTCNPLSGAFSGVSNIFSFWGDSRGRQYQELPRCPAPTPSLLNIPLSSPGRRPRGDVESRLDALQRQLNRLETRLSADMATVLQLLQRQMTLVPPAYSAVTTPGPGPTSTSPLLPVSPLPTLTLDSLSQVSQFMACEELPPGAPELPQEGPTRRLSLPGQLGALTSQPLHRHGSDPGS

The term pIC50 denotes the IC50 on a negative log10 scale, so that one unit is a factor of ten. Read a low pIC50 as a large IC50. As usually defined, the IC20 is the concentration needed for an effect of 20%. As to `Cc1cc(N2CC3(CN(C[C@H]4CN(c5ccc(C#N)c6ncccc56)C[C@@H](C)O4)C3)C2)cc(CO)n1` [Example 1, 5-[(2S,6R)-2-[[2-[2-(hydroxymethyl)-6-methyl-4-pyridyl]-2,6-diazaspiro[3.3]heptan-6-yl]methyl]-6-methyl-morpholin-4-yl]quinoline-8-carbonitrile], the pIC50 is less than 4.70, the IC20 was more than 10 µM, the “hERG IC20/TLR7 IC50” value is listed as more than 357.1 and the “hERG IC20/TLR8 IC50” value was more than 123.5. Besides, the “hERG IC20/TLR9 IC50” value is recorded as more than 294.1.
On the same counts, the results for `Cc1cc(NC2CCN(C[C@H]3CN(c4ccc(C#N)c5ncccc45)C[C@@H](C)O3)CC2)cc(CO)n1` [Example 5] are less than 4.70, 7.18 µM, 121.8, 217.7 and 224.5.
In the case of `Cc1cc(NC2CCN(C[C@H]3CN(c4ccc(C#N)c5ncccc45)C[C@@H](C)O3)C2)cc(CO)n1` (some centres unmarked) [Example 6], the pIC50 is less than 4.70, the IC20 turned out to be 5.83 µM, the “hERG IC20/TLR7 IC50” value stood at 132.4 and the “hERG IC20/TLR8 IC50” value is given as 109.9. In addition, the “hERG IC20/TLR9 IC50” value is 142.1.
Regarding `Cc1cc(N2CC(NC[C@H]3CN(c4ccc(C#N)c5ncccc45)C[C@@H](C)O3)C2)cc(CO)n1` [Example 30], the pIC50 was less than 5.00, the IC20 stood at 4.51 µM, the “hERG IC20/TLR7 IC50” value is reported as 69.4 and the “hERG IC20/TLR8 IC50” value stood at 322.0. In addition, the “hERG IC20/TLR9 IC50” value came to 51.2.
In the case of `CC(O)c1cc(N2CC3(CN(C[C@H]4CN(c5ccc(C#N)c6ncccc56)C[C@@H](C)O4)C3)C2)ccn1` (stereo partly drawn) [Example 46, 5-[(2S,6R)-2-[[2-[2-(1-hydroxyethyl)-4-pyridyl]-2,6-diazaspiro[3.3]heptan-6-yl]methyl]-6-methyl-morpholin-4-yl]quinoline-8-carbonitrile], the pIC50 was less than 5.00, the 20% effect level (IC20) was put at 4.69 µM, the “hERG IC20/TLR7 IC50” value worked out at 146.6 and the “hERG IC20/TLR8 IC50” value was 52.1. Besides, the “hERG IC20/TLR9 IC50” value came out at 146.6.
For the compound `Cc1cc(NC2CN(C[C@H]3CN(c4ccc(C#N)c5ncccc45)C[C@@H](C)O3)C2)cc(C)n1` [Example 7], the pIC50 is less than 4.70, the IC20 is more than 10 µM, the “hERG IC20/TLR7 IC50” value is recorded as more than 384.6 and the “hERG IC20/TLR8 IC50” value is on record as more than 322.6. In addition, the “hERG IC20/TLR9 IC50” value is reported as more than 256.4.
Taken in the same sequence, the figures for `C[C@@H]1CN(c2ccc(C#N)c3ncccc23)C[C@H](CN2CCN(c3cc(N)nc(CO)c3)CC2)O1` [Example 45, 5-[(2S,6R)-2-[[4-[2-amino-6-(hydroxymethyl)-4-pyridyl]piperazin-1-yl]methyl]-6-methyl-morpholin-4-yl]quinoline-8-carbonitrile] were less than 4.70, more than 10 µM, more than 256.4, more than 714.3 and more than 109.9.
